The record followed here is ChEMBL document CHEMBL3727356, “Therapeutic compounds and compositions” (2014).

Experiment [1] addresses Pyruvate kinase PKLR (Homo sapiens, UniProt P30613, R532W). The experiment can be described thus: Activation of PKR R532W mutant (unknown origin) incubated for 60 mins in presence of ADP, PEP and NADH by Spectraax microplate reader based assay.
Experiment [2] deals with Pyruvate kinase PKLR (Homo sapiens, UniProt P30613). The experiment can be described thus: Activation of wild type PKR (unknown origin) incubated for 60 mins in presence of ADP, PEP and NADH by Spectraax microplate reader based assay.
Sequence of Pyruvate kinase PKLR (Homo sapiens, UniProt P30613) (P30613 whole entry): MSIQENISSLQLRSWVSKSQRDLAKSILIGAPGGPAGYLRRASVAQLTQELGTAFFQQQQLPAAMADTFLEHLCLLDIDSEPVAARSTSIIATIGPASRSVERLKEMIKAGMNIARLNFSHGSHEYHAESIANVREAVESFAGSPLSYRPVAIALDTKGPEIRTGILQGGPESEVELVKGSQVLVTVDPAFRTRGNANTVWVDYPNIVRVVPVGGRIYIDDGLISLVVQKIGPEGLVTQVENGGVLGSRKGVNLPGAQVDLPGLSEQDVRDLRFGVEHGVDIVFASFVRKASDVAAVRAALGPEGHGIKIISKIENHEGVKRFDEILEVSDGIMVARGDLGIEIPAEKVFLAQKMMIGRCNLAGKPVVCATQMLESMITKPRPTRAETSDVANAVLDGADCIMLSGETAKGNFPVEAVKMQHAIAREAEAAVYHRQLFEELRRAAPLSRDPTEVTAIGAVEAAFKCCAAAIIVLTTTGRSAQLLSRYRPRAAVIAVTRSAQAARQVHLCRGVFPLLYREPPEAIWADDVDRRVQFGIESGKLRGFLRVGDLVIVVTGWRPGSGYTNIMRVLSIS

Sequence of Pyruvate kinase PKLR (Homo sapiens, UniProt P30613, R532W) (P30613 whole entry R532W): as the sequence (P30613 whole entry) above, with R532W counted along it

What is called AC50 is the concentration giving half of the maximal activity seen. For `C=C(C)CC1(O)CCN(C(=O)c2ccc(NS(=O)(=O)c3cccc4scnc34)cc2)CC1`, the AC50 in experiment [1] and in experiment [2] was less than 100 nM throughout. For `CC(C)CC1(CO)CCN(C(=O)c2ccc(NS(=O)(=O)c3cccc4scnc34)cc2)CC1`, the AC50 in experiment [1] and in experiment [2] was less than 100 nM throughout. Consider `COc1cc(NS(=O)(=O)c2cccc3cccnc23)ccc1C(=O)N1CCC(O)(c2ccccc2Cl)CC1`, for which the AC50 in experiment [1] and in experiment [2] was less than 100 nM throughout.

Consider `O=C(c1ccc(NS(=O)(=O)c2cccc3ccoc23)cc1)N1CCC(O)(c2ccccc2Cl)CC1`, for which the AC50 in experiment [1] and in experiment [2] was less than 100 nM each time. Turning to `O=C(c1ccc(NS(=O)(=O)c2cccc3cccnc23)cc1)N1CCC(O)(Cc2cccc(C(F)(F)F)c2)CC1`, the AC50 in experiment [1] and in experiment [2] was less than 100 nM throughout. Consider `O=C(c1ccc(NS(=O)(=O)c2cccc3scnc23)cc1)N1CCC(O)(c2scnc2Cl)CC1`, for which the AC50 in experiment [1] and in experiment [2] was less than 100 nM in each case. Take `COc1ccccc1C1(O)CCN(C(=O)c2ccc(NS(=O)(=O)c3cccc4cccnc34)cc2)CC1`: the AC50 in experiment [1] and in experiment [2] was less than 100 nM each time.

As to `O=C(c1ncc(NS(=O)(=O)c2cccc3cccnc23)cn1)N1CCC(O)(c2ccccc2)CC1`, the AC50 in experiment [2] is greater than 10000 nM. In the case of `Cc1noc(C)c1CC1(O)CCN(C(=O)c2ccc(NS(=O)(=O)c3cccc4scnc34)cc2)CC1`, the AC50 in experiment [1] and in experiment [2] was less than 100 nM throughout. Turning to `O=C(c1ccc(NS(=O)(=O)c2cccc3scnc23)cc1)N1CCC(O)(Cc2cn[nH]c2)CC1`, the AC50 in experiment [1] and in experiment [2] was less than 100 nM throughout. Take `O=C(c1ccc(NS(=O)(=O)c2cccc3ocnc23)cc1)N1CCC(O)(c2ccccc2Cl)CC1`: the AC50 in experiment [2] was less than 100 nM. Turning to `O=C(c1ccc(NS(=O)(=O)c2cccc3scnc23)cc1)N1CCC(O)(CC2CC2)CC1`, the AC50 in experiment [1] and in experiment [2] was less than 100 nM each time. Consider `O=C(c1ccc(NS(=O)(=O)c2cc(F)cc3scnc23)cc1)N1CCC(O)(c2ccccc2Cl)CC1`, for which the AC50 in experiment [1] and in experiment [2] was less than 100 nM in each case. On to `O=C(c1ccc(NS(=O)(=O)c2cccc3scnc23)cc1)N1CCC(O)(CCC(F)=C(F)F)CC1`, for which the AC50 in experiment [1] and in experiment [2] was less than 100 nM in each case. Consider `CC(C)CC1(CO)CCN(C(=O)c2ccc(NS(=O)(=O)c3cccc4nccnc34)cc2)CC1`, for which the AC50 in experiment [1] and in experiment [2] was less than 100 nM each time. `CC(C)(O)CCCC1(O)CCN(C(=O)c2ccc(NS(=O)(=O)c3cccc4nccnc34)cc2)CC1`: the AC50 in experiment [1] and in experiment [2] was greater than 10000 nM throughout. With `COc1ncccc1C1(O)CCN(C(=O)c2ccc(NS(=O)(=O)c3cccc4cccnc34)cc2)CC1`, the AC50 in experiment [1] and in experiment [2] was less than 100 nM each time.

As to `CC(F)(F)CCC1(O)CCN(C(=O)c2ccc(NS(=O)(=O)c3cccc4nccnc34)cc2OC(F)F)CC1`, the AC50 in experiment [1] is less than 100 nM. For `Nc1nc2c(S(=O)(=O)Nc3ccc(C(=O)N4CCC(O)(CCC(F)(F)F)CC4)cc3)cccc2s1`, the AC50 in experiment [1] and in experiment [2] was less than 100 nM each time. As to `COCCC1(O)CCN(C(=O)c2ccc(NS(=O)(=O)c3cccc4cccnc34)cc2)CC1`, the AC50 in experiment [2] was less than 100 nM. Regarding `CC(F)(F)CCC1(O)CCN(C(=O)c2ccc(NS(=O)(=O)c3cc(F)cc4sc(N)nc34)cc2F)CC1`, the AC50 in experiment [2] was less than 100 nM. As for `Cc1nc(C(=O)N2CCC(O)(c3ccccc3Cl)CC2)ccc1NS(=O)(=O)c1cccc2cccnc12`, the AC50 in experiment [1] and in experiment [2] was less than 100 nM in each case.

`Cn1cc(CC2(O)CCN(C(=O)c3ccc(NS(=O)(=O)c4cccc5scnc45)cc3)CC2)cn1`: the AC50 in experiment [1] is less than 100 nM. `CC(C)CC1(O)CCN(C(=O)c2ccc(NS(=O)(=O)c3cccc4snnc34)cc2)CC1`: the AC50 in experiment [1] and in experiment [2] was greater than 10000 nM throughout.

On to `O=C(c1ccc(NS(=O)(=O)c2cccc3cccnc23)cc1)N1CCC(O)(c2cccnc2F)CC1`, for which the AC50 in experiment [2] is less than 100 nM.

In the case of `O=C(c1ccc(NS(=O)(=O)c2cccc3cccnc23)cc1)N1CCC(O)(Cc2cccnc2)CC1`, the AC50 in experiment [1] and in experiment [2] was less than 100 nM throughout. Regarding `O=C(c1ccc(NS(=O)(=O)c2cccnc2)cc1)N1CCC(O)(Cc2ccccc2)CC1`, the AC50 in experiment [1] is greater than 10000 nM.

For the compound `CC(C)CC1(OP(=O)(O)O)CCN(C(=O)c2ccc(NS(=O)(=O)c3cccc4scnc34)cc2)CC1`, the AC50 in experiment [1] and in experiment [2] was greater than 10000 nM each time.

Take `O=C(c1ccc(NS(=O)(=O)c2cccc3cccnc23)cc1)N1CCC(O)(Cc2ccccn2)CC1`: the AC50 in experiment [1] and in experiment [2] was less than 100 nM in each case. With `O=C(c1ccc(NS(=O)(=O)c2cccc3scnc23)cc1)N1CCC(O)(CC2CC2(F)F)CC1` (centres undefined), the AC50 in experiment [1] and in experiment [2] was less than 100 nM in each case. Turning to `Cc1nc(C2(O)CCN(C(=O)c3ccc(NS(=O)(=O)c4cccc5cccnc45)cc3)CC2)ccc1F`, the AC50 in experiment [1] and in experiment [2] was less than 100 nM in each case. Turning to `O=C(c1ccc(NS(=O)(=O)c2cccc3ccc(F)nc23)cc1)N1CCC(O)(c2ccccc2Cl)CC1`, the AC50 in experiment [1] and in experiment [2] was less than 100 nM in each case. On to `O=C(c1ccc(NS(=O)(=O)c2cc(F)cc3cccnc23)cc1)N1CCC(O)(c2ccccc2)CC1`, for which the AC50 in experiment [1] and in experiment [2] was less than 100 nM throughout. Take `Cn1nccc1CC1(O)CCN(C(=O)c2ccc(NS(=O)(=O)c3cccc4scnc34)cc2)CC1`: in experiment [1], the AC50 is less than 100 nM. As for `O=C(c1ccc(NS(=O)(=O)c2cccc3scnc23)cc1)N1CCC(O)(c2ccccc2C(F)F)CC1`, the AC50 in experiment [1] and in experiment [2] was less than 100 nM throughout. In the case of `O=C(c1ccc(NS(=O)(=O)c2cccc3cccnc23)cc1)N1CCC(O)(c2ncccc2F)CC1`, the AC50 in experiment [1] and in experiment [2] was less than 100 nM each time. `Cc1cccc(CC2(O)CCN(C(=O)c3ccc(NS(=O)(=O)c4cccc5cccnc45)cc3)CC2)n1`: the AC50 in experiment [1] and in experiment [2] was less than 100 nM each time.

As for `O=C(c1ccc(NS(=O)(=O)c2cc(F)cc3cccnc23)cc1)N1CCC(O)(c2ccccc2Cl)CC1`, the AC50 in experiment [1] and in experiment [2] was less than 100 nM each time. Take `Cc1n[nH]c(C)c1CC1(O)CCN(C(=O)c2ccc(NS(=O)(=O)c3cccc4nccnc34)cc2)CC1`: the AC50 in experiment [1] and in experiment [2] was less than 100 nM throughout. As to `Cc1ccc(C2(O)CCN(C(=O)c3ccc(NS(=O)(=O)c4cccc5cccnc45)cc3)CC2)c(Cl)c1`, the AC50 in experiment [1] and in experiment [2] was less than 100 nM in each case. On to `O=C(c1ccc(NS(=O)(=O)c2cccc3cnccc23)cc1)N1CCC(O)(c2ccccc2)CC1`, for which the AC50 in experiment [1] and in experiment [2] was greater than 10000 nM throughout. As for `O=C(c1ccc(NS(=O)(=O)c2cccc3nccnc23)cc1)N1CCC(O)(CC2CC2)CC1`, the AC50 in experiment [1] and in experiment [2] was less than 100 nM throughout. As for `O=C(c1ccc(NS(=O)(=O)c2cccc3cccnc23)cc1)N1CCC(O)(/C=C/C(F)F)CC1`, the AC50 in experiment [2] was less than 100 nM. `CCOCC1(O)CCN(C(=O)c2ccc(NS(=O)(=O)c3cccc4cccnc34)cc2)CC1`: in experiment [1], the AC50 is less than 100 nM. Regarding `N#Cc1cccc(S(=O)(=O)Nc2ccc(C(=O)N3CCC(O)(Cc4ccccc4)CC3)cc2)c1`, the AC50 in experiment [2] was greater than 10000 nM.

Take `O=C(c1ccc(NS(=O)(=O)c2cccc3scnc23)cc1)N1CCC(O)(Cc2nc(Cl)cs2)CC1`: in experiment [2], the AC50 was less than 100 nM.
